Measurements as given in US6087334A, “Anti-diabetic peptides” (Amylin Pharmaceuticals, Inc., priority 1998, dated 2000).
Where a SMILES comes first, the peptide text is derived from it. Bridges are numbered along the chain shown (N, C = ends).

Experiments:
[1] = biological target: T1, C1a receptor (C1a-type calcitonin receptor) (Rattus norvegicus, UniProt P32214); experiment: C1a/293 competitive binding, displacement of [125I]-human calcitonin (Example C); conditions: HEK293 plasma membranes (C1a/293), [125I]-human calcitonin 20 pM
T1 construct: expressed in transfected cells
T1 sequence (P32214 25-479 isoform P32214-2 limits assumed): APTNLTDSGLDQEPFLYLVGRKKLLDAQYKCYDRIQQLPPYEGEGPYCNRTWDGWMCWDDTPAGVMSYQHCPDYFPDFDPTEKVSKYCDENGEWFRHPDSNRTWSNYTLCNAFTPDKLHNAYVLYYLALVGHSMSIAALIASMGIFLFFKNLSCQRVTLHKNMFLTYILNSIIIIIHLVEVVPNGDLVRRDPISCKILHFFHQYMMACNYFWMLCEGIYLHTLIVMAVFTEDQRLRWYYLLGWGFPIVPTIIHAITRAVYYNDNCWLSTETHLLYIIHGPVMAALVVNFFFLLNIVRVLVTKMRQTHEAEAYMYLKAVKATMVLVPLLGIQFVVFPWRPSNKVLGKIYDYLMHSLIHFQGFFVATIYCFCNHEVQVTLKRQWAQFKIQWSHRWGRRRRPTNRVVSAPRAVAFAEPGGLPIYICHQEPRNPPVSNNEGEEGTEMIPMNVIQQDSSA
Description: Peptide compounds of the present invention may be evaluated for binding to the C1a receptor using the procedures described in Example C. The C1a receptor is the predominant mammalian calcitonin receptor subtype. C1a pcDNA construction and transfection were carried out as previously described (Albrandt et al. 1993, FEBS Letters, 325:225-232). HEK293 cell lines showing stable expression of the rat C1a-type calcitonin receptor (C1a/293) or the human C1a-type calcitonin receptor (1154/293) were selected by G418 resistance and limiting dilution culture methods. Plasma membranes were collected from homogenized HEK293 cells and used in the receptor binding assay. Individual test peptides at concentrations spanning 6 log units starting at around 10^-6 M were examined for their ability to displace [^125 I]-human calcitonin from the plasma membrane preparation using a 96-well microtiter plate format and scintillation counting with a Wallac LKB Beta plate counter. Competitive binding curves were constructed. Non-specific binding was measured in the presence of 100 nM calcitonin. Peptide potencies (IC50 's for competitive binding) were calculated by non-linear regression using Prism™ (version 2.01, GraphPAD Software, San Diego, Calif.).
C1a/293 Competitive Binding Studies:
Compounds were evaluated for competition in binding to the C1a receptor as follows:
(§1) Reference peptides used in these studies were purchased from Bachem (Torrance, Calif.). All other chemicals were of the highest commercial grade. [^35 S]-GTPγS was purchased from NEN Life Science Products, Inc., Pittsburgh, Pa. [^125 I]-human calcitonin was purchased from Amersham Pharmacia Biotech, Inc., Piscataway, N.J.
(§2) Methods for C1a pcDNA construction and transfection have been previously described (Albrandt, et al. 1993). HEK293 cell lines stably expressing the rat C1a-type calcitonin receptor (C1a/293) or the human C1a-type calcitonin receptor (1154/293) were selected by G418 resistance and limiting dilution culture methods.
(§3) Confluent cells were detached from tissue culture flasks by incubation with 5 mM EDTA in PBS. Cells were homogenized in ice-cold 20 mM HEPES, pH 7.4 with a Polytron homogenizer. Plasma membranes were collected using three cycles of washing in fresh buffer followed by centrifugation for 15 minutes at 48,000×g. The final membrane pellet was resuspended in 20 mM HEPES buffer containing 0.2 mM phenylmethylsulfonyl fluoride (PMSF) and stored at -70° C.
Assay buffer contained 5 μg/mL bestatin, 1 μg/mL phosphoramidon, 1 mg/mL bovine serum albumin (fraction V), 1 mg/mL bacitracin, 1 mM MgCl2, and 20 mM HEPES, pH 7.4. Membranes (2-5 μg membrane protein/well), [^125 I]-human calcitonin (20 pM), and peptides were combined in 200 μL buffer in 96-well microtiter plates. After a 60 minute incubation at room temperature, well contents were harvested onto polyethyleneimine-treated GF/B glass fiber pads using a Tomtec Mach II plate harvestor (Hamden, Conn.). Dried pads were combined with scintillant and counted on a Wallac LKB Beta Plate scintillation counter (Gaithersburg, Md.). For competitive binding curves, samples were run in duplicate over a 6 log concentration range starting at 10^-6 or 10^-7 M. Non-specific binding was measured in the presence of 100 nM human calcitonin.

[2] = biological target: T1, C1a receptor (C1a-type calcitonin receptor); experiment: biochemical; conditions: HEK293 plasma membranes, [35S]-GTPγS 200 pM; read-out: ED50 (nM) Example B (C1a GTPγS)
Source text: Peptide compounds of the present invention may be evaluated for agonist activity using the procedures described in Example B. The plasma membrane preparation of a 7-transmembrane-G-protein coupled receptor (GPCR) contains not only the receptor but also the G-proteins which constitute the first step in the intracellular signal transduction process when the receptor is activated by an agonist ligand. […] Agonist activation of a GPCR is accompanied by displacement of GDP by GTP from this site. Thus, measurement of the binding of a radiolabelled ligand, namely [^35 S]-GTPγS, for this binding site constitutes a measure of agonist potency for a given ligand. For agonism at the C1a receptor, a similar membrane preparation to that described below for the C1a binding studies is used. C1a pcDNA construction and transfection were carried out as previously described (Albrandt et al. 1993, FEBS Letters, 325:225-232). HEK293 cell lines showing stable expression of the rat C1a-type calcitonin receptor (C1a/293) or the human C1a-type calcitonin receptor (1154/293) were selected by G418 resistance and limiting dilution culture methods. Plasma membranes were collected from homogenized HEK293 cells and used in the [^35 S]-GTPγS assay. Individual test peptides at concentrations spanning 6 log units starting at around […] were examined for their ability to bind [^35 S]-GTPγS. Maximum agonist-specific binding was measured in the presence of 1 μM human calcitonin, constitutive binding was measured in the presence of buffer alone. Peptide potencies (EC50 's for concentration response curves) were calculated by non-linear regression using Prism™ (version 2.01, GraphPAD Software, San Diego, Calif.).
[^35 S]-GTPγS C1a Agonist Studies
Evaluation of the agonist activity of compounds versus the C1a receptor was carried out as follows:
as §1
as §2, with “1993, FEBS Letters, 325:225-232).” for “1993).”
as §3
Assay buffer contained 1 μM GDP, 1 mM EDTA, 5 mM MgCl2, 20 mM Hepes, and 150 mM NaCl, pH 7.4. Membranes (7.5 μg membrane protein/well), [^35 S]-GTPγS (200 pM), and peptides were combined in 200 μL buffer in 96-well microtiter plates. After a 75 minute incubation at room temperature, well contents were harvested onto GF/B glass fiber pads using a Tomtec Mach II plate harvestor (Hamden, Conn.). Dried pads were combined with scintillant and counted on a Wallac LKB Beta Plate scintillation counter. For concentration response curves, samples were run in duplicate over a 6 log concentration range starting at 10^-6 M or 10^-7 M. Maximum agonist-specific binding was measured in the presence of 1 μM human calcitonin, constitutive binding was measured in the presence of buffer alone.
Peptide potencies (1C50 's for competitive binding, and EC50 's for concentration response curves) were calculated by non-linear regression using Prism (version 2.01, GraphPAD Software, San Diego, Calif.).

Structure (SMILES)	IC50 [1] [nM]	EC50 [2] [nM]
CC(C)C[C@H](NC(=O)[C@H](CCCNC(=N)N)NC(=O)[C@H](CCC(N)=O)NC(=O)[C@@H](NC(=O)[C@H](C)NC(=O)[C@@H]1CSSC[C@H](NC(=O)[C@@H](N)CCCCN)C(=O)N[C@@H](CC(N)=O)C(=O)N[C@@H]([C@@H](C)O)C(=O)N[C@@H](C)C(=O)N[C@@H]([C@@H](C)O)C(=O)N1)[C@@H](C)O)C(=O)N[C@@H](C)C(=O)N[C@@H](CC(N)=O)C(=O)N[C@@H](Cc1ccccc1)C(=O)N[C@@H](CC(C)C)C(=O)N[C@H](C(=O)N[C@@H](CCCNC(=N)N)C(=O)N[C@@H](C)C(=O)N[C@@H](CO)C(=O)NCC(=O)N[C@@H](Cc1ccc(O)cc1)C(N)=O)C(C)C [Example 10] (H-KCNTATCATQRLANFLVRASGY-NH2; disulfide 2-7)	4.7	8
CC(C)C[C@H](NC(=O)[C@H](CCCNC(=N)N)NC(=O)[C@H](CCC(N)=O)NC(=O)[C@@H](NC(=O)[C@H](C)NC(=O)[C@@H]1CSSC[C@H](NC(=O)[C@@H](N)CCCCN)C(=O)N[C@@H](CC(N)=O)C(=O)N[C@@H]([C@@H](C)O)C(=O)N[C@@H](C)C(=O)N[C@@H]([C@@H](C)O)C(=O)N1)[C@@H](C)O)C(=O)N[C@@H](C)C(=O)N[C@@H](CC(N)=O)C(=O)N[C@@H](Cc1ccccc1)C(=O)N[C@@H](CC(C)C)C(=O)N[C@H](C(=O)N[C@@H](Cc1c[nH]cn1)C(=O)N[C@@H](CO)C(=O)N[C@@H](CO)C(=O)NCC(=O)N[C@@H](Cc1ccc(O)cc1)C(N)=O)C(C)C [Example 11] (H-KCNTATCATQRLANFLVHSSGY-NH2; disulfide 2-7)	8.3	14
CC(C)C[C@H](NC(=O)[C@H](CCCNC(=N)N)NC(=O)[C@H](CCC(N)=O)NC(=O)[C@@H](NC(=O)[C@H](C)NC(=O)[C@@H]1CSSC[C@H](NC(=O)[C@@H](N)CCCCN)C(=O)N[C@@H](CC(N)=O)C(=O)N[C@@H]([C@@H](C)O)C(=O)N[C@@H](C)C(=O)N[C@@H]([C@@H](C)O)C(=O)N1)[C@@H](C)O)C(=O)N[C@@H](C)C(=O)N[C@@H](CC(N)=O)C(=O)N[C@@H](Cc1ccccc1)C(=O)N[C@@H](CC(C)C)C(=O)N[C@H](C(=O)N[C@@H](C)C(=O)N[C@@H](CO)C(=O)N[C@@H](CO)C(=O)NCC(=O)N[C@@H](Cc1ccc(O)cc1)C(N)=O)C(C)C [Example 12] (H-KCNTATCATQRLANFLVASSGY-NH2; disulfide 2-7)	10	8
CC(C)C[C@H](NC(=O)[C@H](CCCNC(=N)N)NC(=O)[C@H](CCC(N)=O)NC(=O)[C@@H](NC(=O)[C@H](C)NC(=O)[C@@H]1CSSC[C@H](N)C(=O)N[C@@H](CC(N)=O)C(=O)N[C@@H]([C@@H](C)O)C(=O)N[C@@H](C)C(=O)N[C@@H]([C@@H](C)O)C(=O)N1)[C@@H](C)O)C(=O)N[C@@H](C)C(=O)N[C@@H](CC(N)=O)C(=O)N[C@@H](Cc1ccccc1)C(=O)N[C@@H](CC(C)C)C(=O)N[C@H](C(=O)N[C@@H](CCCNC(=N)N)C(=O)N[C@@H](CO)C(=O)N[C@@H](CO)C(=O)NCC(=O)N[C@@H](Cc1ccc(O)cc1)C(N)=O)C(C)C [Example 13] (H-CNTATCATQRLANFLVRSSGY-NH2; disulfide 1-6)	12	19
CC(C)C[C@H](NC(=O)[C@H](CCCNC(=N)N)NC(=O)[C@H](CCC(N)=O)NC(=O)[C@@H](NC(=O)[C@H](C)NC(=O)[C@@H]1CSSC[C@H](NC(=O)[C@@H](N)CCCCN)C(=O)N[C@@H](CC(N)=O)C(=O)N[C@@H]([C@@H](C)O)C(=O)N[C@@H](C)C(=O)N[C@@H]([C@@H](C)O)C(=O)N1)[C@@H](C)O)C(=O)N[C@@H](C)C(=O)N[C@@H](CC(N)=O)C(=O)N[C@@H](Cc1ccccc1)C(=O)N[C@@H](CC(C)C)C(=O)N[C@H](C(=O)N[C@@H](CCCNC(=N)N)C(=O)N[C@@H](CO)C(=O)N[C@@H](CO)C(=O)NCC(=O)N[C@@H](Cc1ccc(O)cc1)C(N)=O)C(C)C [Example 14] (H-KCNTATCATQRLANFLVRSSGY-NH2; disulfide 2-7)	18	90
CC(C)C[C@H](NC(=O)[C@H](CCCNC(=N)N)NC(=O)[C@H](CCC(N)=O)NC(=O)[C@@H](NC(=O)[C@H](C)NC(=O)[C@@H]1CSSC[C@H](NC(=O)[C@@H](N)CCCCN)C(=O)N[C@@H](CC(N)=O)C(=O)N[C@@H]([C@@H](C)O)C(=O)N[C@@H](C)C(=O)N[C@@H]([C@@H](C)O)C(=O)N1)[C@@H](C)O)C(=O)N[C@@H](C)C(=O)N[C@@H](CC(N)=O)C(=O)N[C@@H](Cc1ccccc1)C(=O)N[C@@H](CC(C)C)C(=O)N[C@H](C(=O)N[C@@H](CCCNC(=N)N)C(=O)N[C@@H](CO)C(=O)N[C@@H](C)C(=O)NCC(=O)N[C@@H](Cc1ccc(O)cc1)C(N)=O)C(C)C [Example 15] (H-KCNTATCATQRLANFLVRSAGY-NH2; disulfide 2-7)	18	21
